Values of other authors as cited in patent US7593820B2, “Crystal structure of human Janus Kinase 2 (JAK2) and uses thereof” (Cytopia Research Pty Ltd, priority 2005, dated 2009).

Test system: other PTKs that possess either a Thr or Val
Settings: Thr or Val at gatekeeper position

IC50 for other PTKs that possess either a Thr or Val: uM range
Compound: CC(C)(C)c1nc2c3cc[nH]c(=O)c3c3cc(F)ccc3c2[nH]1 [Compound 6, 2-tert-Butyl-9-fluoro-3,6-dihydro-7H-benz[h]imidazo[4,5-f]isoquinolin-7-one]
